Assay results taken from patent publication EP3349734B1, “USE OF SOLUBLE AND INSOLUBLE FRACTIONS OF A CYCLODEXTRIN POLYMER AND OF MIXTURES THEREOF AS AN EXCIPIENT IN A TABLET” (Université de Lille, priority 2015, dated 2017).

Columns and labels:
Type in all cases: physicochemical
[1] = Phase-solubility diagram of ibuprofène with cyclodextrins or soluble polymer fractions; settings: calculated from slope and So of the solubility diagram
Procedure: (§1) Les diagrammes de solubilité de plusieurs principes actifs ont été effectués en présence de cyclodextrines et de fractions solubles de polymères de cyclodextrine mentionnés à l'exemple 1.
(§2) Des solutions de concentration croissante de cyclodextrines et fractions solubles de polymères de cyclodextrine ont été préparées dans de l'eau ultrapure [0-70 g/L]. 10 mL de chacune des solutions ont été mis en présence d'un excès du principe actif (20 mg) sous agitation pendant 24 heures à température ambiante. Les solutions ont ensuite été filtrées avec une membrane en cellulose et en Nylon (0,45 µm; VWR International, USA) respectivement pour l'Ibuprofène et le Piroxicam. L'ibuprofène a été dosé par HPLC (Shimadzu LC-2010 HT Liquid Chromatography), la phase mobile de l'ibuprofène est un mélange acétonitrile/eau (60:40) avec un pH de 2,25, une colonne C18 a été utilisée. Le piroxicam a été dosé par spectrophotométrie UV-Vis à 356 nm (UV 1800 Shimadzu).
(§3) La constante de stabilité (K1:1) est utilisée pour comparer l'affinité de principes actifs pour différentes cyclodextrines ou dérivés. La solubilité totale de médicament (St) en solution aqueuse de cyclodextrine sera : [formula]
(§4) So = solubilité intrinsèque du médicament; [CD]1 = concentration totale en cyclodextrine dans le milieu aqueux
(§5) Une parcelle de St rapport [CD] t, selon l'équation (1), donnera une ligne droite avec une pente (K 1:1 So / (1 + K 1:1 So)) et une interception (Sint) égale à So. K 1:1 est calculée à partir de la pente et So : [formula]
Afin de pouvoir faire une comparaison directe entre cyclodextrine monomère et cyclodextrine polymérisée, les diagrammes de solubilité sont présentés en fonction de la concentration rapportée en gramme de monomère de cyclodextrine par litre. Tableau 3 : Solubilité de l'ibuprofène et constantes de complexation en présence des cyclodextrines ou de fractions solubles de polymères de cyclodextrine à 10 et 50 g/L en cyclodextrine. L'utilisation de cyclodextrines sous forme de monomères ne tombe pas sous l'étendue de la protection revendiquée.

[2] = Phase-solubility diagram of piroxicam with cyclodextrins or soluble polymer fractions; settings: calculated from slope and So of the solubility diagram
Procedure: as §1, §2, §3, §4, §5

[3] = Glass transition by DSC (Gordon-Taylor extrapolation of mannitol mixtures; quenched melt); settings: after melt-quench at 210°C, heating 5°C/min
Procedure: Les expériences de calorimétrie ont été réalisées avec la DSC Q200 de chez TA Instruments. Les échantillons ont été placés dans des creusets en aluminium ouverts et balayés avec de l'azote gazeux pur. L'instrument a été étalonné en température et en enthalpie en utilisant l'indium comme standard. […]
La figure 12 montre les thermogrammes des mélanges poly-βCD / mannitol enregistrés au chauffage (5°C/min). Ils présentent tous un saut de chaleur spécifique (Cp) caractéristique d'une transition vitreuse. Ce saut est unique, ce qui indique que les mélanges sont dans un état physique amorphe homogène. La température de transition vitreuse Tg (prise au point d'inflexion du saut) diminue lorsque la concentration en mannitol augmente ce qui montre l'effet plastifiant du mannitol sur la poly-βCD. L'évolution du Tg du mélange ave la concentration en mannitol (X) suit une loi de Gordon Taylor dont l'extrapolation à X = 0 permet d'estimer le Tg de la poly-βCD pure. On trouve Tg # 400°C. La transition vitreuse de la poly-βCD se situe donc à très haute température et bien au-dessus de sa température de dégradation thermique. Elle ne peut donc pas être observée directement en DSC. Une étude analogue menée avec la poly-MebCD révèle un comportement identique et une transition vitreuse proche de Tg = 317°C. […]

[4] = Dissolution test of piroxicam (Sotax USP 4, HCl pH = 4); settings: in 45 minutes; 500 mL HCl pH = 4, 37°C, 50 mL/min
Text: (§6) La dissolution de principes actifs à partir de comprimés selon l'invention, i.e. les comprimés formés à partir de fractions solubles de polymères de cyclodextrine, a été comparée à la dissolution de principes actifs à partir de comprimés formés à partir de cyclodextrines sous forme de monomères ainsi qu'à la dissolution du principe actif non compris dans une forme galénique.
(§7) La poudre contenant les cyclodextrines ou les fractions solubles de polymère de cyclodextrine et le principe actif a été obtenue par granulation humide comme détaillé dans l'exemple 4. Le ratio CD ou PolyCD / ibuprofène était de 90/10 et le ratio CD ou PolyCD / Piroxicam était de 60 / 40. Les essais de dissolution ont été réalisés dans un système Sotax® USP 4 (50 mL/min, 37°C) muni d'un détecteur UV. L'ibuprofène et le piroxicam ont été détectés à une longueur d'onde de 264 et 334 nm, respectivement.
(§8) Le milieu de dissolution est composé de 500 mL de HCl (pH = 1) dans le cas de l'ibuprofène, et de 500 mL de HCl (pH = 4) dans le cas du piroxicam. Des échantillons ont été prélevés toutes les 2 minutes pendant 1 h et analysés par un spectromètre UV-VIS (Perkin Elmer Lambda 25). Les courbes sont obtenues en pourcentage en divisant la quantité de principe actif libérée au cours du temps par la quantité de principe actif initiale.

[5] = Dissolution test of ibuprofène (Sotax USP 4, HCl pH = 1); settings: in 45 minutes, 500 mL HCl pH = 1, 37°C, 50 mL/min
Text: as §6, §7, §8

Row | Compound | Constante de complexation K1:1 [1] [M⁻¹] | further results
1 | hydroxypropyl-γ-cyclodextrine [HPγCD] | 11 | 
2 | CN1C(C(=O)Nc2ccccn2)=C(O)c2ccccc2S1(=O)=O [piroxicam, 1,1-dioxydede 4-hydroxy-2-méthyl-N-(2-pyridinyl)-2H-1,2-benzothiazine-3-carboxamide] |  | Tg (saut de chaleur spécifique) [3]: 65 °C; libération du piroxicam [4]: 10%
3 | méthyl-β-cyclodextrine [MeβCD] | 33 | 
4 | CC(C)Cc1ccc(C(C)C(=O)O)cc1 (stereo not shown) [ibuprofène, acide 2-[4-isobutylphényl]propanoique] |  | dissolution du principe actif [5]: 15%

Continued, in another order:

Row | Constante de complexation K1:1 [1] [M⁻¹] | Compound | further results
5 | 45 | hydroxypropyl-β-cyclodextrine [HPβCD2] | Constante de complexation K1:1 [2]: 185 M⁻¹
6 | 1 | OC[C@H]1O[C@@H]2O[C@H]3[C@H](O)[C@@H](O)[C@@H](O[C@H]4[C@H](O)[C@@H](O)[C@@H](O[C@H]5[C@H](O)[C@@H](O)[C@@H](O[C@H]6[C@H](O)[C@@H](O)[C@@H](O[C@H]7[C@H](O)[C@@H](O)[C@@H](O[C@H]8[C@H](O)[C@@H](O)[C@@H](O[C@H]9[C@H](O)[C@@H](O)[C@@H](O[C@H]1[C@H](O)[C@H]2O)O[C@@H]9CO)O[C@@H]8CO)O[C@@H]7CO)O[C@@H]6CO)O[C@@H]5CO)O[C@@H]4CO)O[C@@H]3CO [γCD, γ-cyclodextrine] | Constante de complexation K1:1 [2]: 890 M⁻¹
7 | 17 | hydroxypropyl-β-cyclodextrine [HPβCD1] | 
